Measurements as given in patent EP0165970B1, “HAIR GROWTH MODIFICATION” (KASZYNSKI, Edwin G., priority 1983, dated 1985).

Assays:
[1] = test system: flank organ hair; assay: Flank organ hair mass (hair re-growth) after topical application; format: in vivo; conditions: adult intact male hamsters
Text: The absence of antagonism of synthemic androgen activity in the practice of our invention can be shown by the topical application of suitable compositions to one of the two flank organs of mature male hamsters. Dose-related decreases in androgen-dependent flank organ hair growth are obtained on the treated side but no statistically significant change occurs in the contralateral, vehicle-treated side. Similar studies have been conducted using female hamsters in which hair growth on the flank organs has been stimulated by the subcutaneous administration of a suitable androgen.
Summarized below are the results of several experiments comparing the efficacy of several compositions in reducing the flank organ hair mass in adult intact male hamsters. In each case, hamsters were treated for 15 days (Monday-Friday) during a 21-day interval. Flank organ hairs were depilated on the first day of treatment and redepilated on the sixth day of treatment. The mass of flank organ hair represents the re-growth during the final 14 days of the 21-day interval. The results for percent inhibition shown below are based upon comparisons between the hair mass values of hairs hervested from treated flank organs of experimental animals and those obtained from vehicle-treated control animals.

[2] = test system: ornithine decarboxylase (ODC); assay: Flank organ ornithine decarboxylase (ODC) activity, in vivo screen for topical antiandrogens; design: species or system hamsters; conditions: for ODC activity in flank organs: applied topically, single agents
Text: A novel method for screening topical antiandrogens has been developed in which the fluctuations in flank organ activity of the enzyme ornithine decarboxylase (ODC) in response to androgens and antiandrogens is exploited to provide a rapid, in vivo screen for antiandrogens, based on a biochemical parameter specifically related to androgenic stimulation of pilosebaceous target tissues.
A further series of investigations on the androgenic regulation of ODC activity in hamster flank organs has been conducted to test topical antiandrogenic formulations consisting of combination regimens.

[3] = unilateral topical application, flank organs of intact (uncastrated) male hamsters
[4] = Experiment III, 500 micrograms per square centimeter
[5] = topical, androgen stimulated female hamsters

SMILES: C[C@]12CC[C@H]3[C@@H](CCC4=CC(=O)CC[C@@]43C)[C@@H]1CC[C@@H]2C(=O)O [4-androstene-3-one-17B- Carboxylic acid]
- % Inhibition ([1]; Experiment II, 400 micrograms per square centimeter): 29%

SMILES: CCC[C@]1(O)CC[C@H]2[C@@H]3CCC4=CC(=O)CC[C@]4(C)[C@H]3CC[C@@]21C [17-α-Propyltestosterone]
- % Inhibition ([1]; Experiment I, 6 micrograms per square centimeter): 26%
- ODC activity in flank organs [2]: inhibit ODC activity
- ODC activity [2, 3]: selectively decreased ODC activity on treated but not untreated flank organs

SMILES: C=CC[C@]1(O)CC[C@H]2[C@@H]3CCC4=CC(=O)CC[C@]4(C)[C@H]3CC[C@@]21C [17-α-allyltestosterone]
- % Inhibition ([1]; Experiment IV, 5 micrograms per square centimeter): 0%
- % Inhibition ([1]; Experiment IV, 20 micrograms per square centimeter): 29%
- % Inhibition ([1]; Experiment IV, 50 micrograms per square centimeter): 50%
- % Inhibition ([1]; Experiment IV, 100 micrograms per square centimeter): 50%
- ODC activity in flank organs [2]: inhibit ODC activity
- ODC activity [2, 3]: selectively decreased ODC activity on treated but not untreated flank organs

SMILES: CC(=O)O[C@]1(C(C)=O)CC[C@H]2[C@@H]3C=C(Cl)C4=CC(=O)CC[C@]4(C)[C@H]3CC[C@@]21C [Chlormadione acetate]
- % Inhibition [1, 4]: 45%
- ODC activity in flank organs [2]: inhibit ODC activity

SMILES: CC(=O)O[C@]1(C(C)=O)CC[C@H]2[C@@H]3C=C(Cl)C4=CC(=O)[C@@H]5C[C@@H]5[C@]4(C)[C@H]3CC[C@@]21C [Cyproterone acetate]
- % Inhibition ([1]; Experiment I, 500 micrograms per square centimeter): 26%
- % Inhibition ([1]; Experiment II, 50 micrograms per square centimeter): 23%
- % Inhibition ([1]; Experiment II, 500 micrograms per square centimeter): 38%
- ODC activity in flank organs [2]: inhibit ODC activity
- ODC activity [2, 5]: inhibited ODC activity

SMILES: CC(=O)[C@H]1CC[C@H]2[C@@H]3CCC4=CC(=O)CC[C@]4(C)[C@H]3CC[C@]12C [Progesterone]
- % Inhibition ([1]; Experiment I, 15 days treatment in 21-day interval, 1000 micrograms per square centimeter): 30%
- % Inhibition ([1]; Experiment III, 1000 micrograms per square centimeter): 57%
- % Inhibition ([1]; Experiment IV, 1000 micrograms per square centimeter): 48%
- ODC activity in flank organs [2]: inhibit ODC activity
- ODC activity [2, 5]: inhibited ODC activity

SMILES: CC(=O)S[C@@H]1CC2=CC(=O)CC[C@]2(C)[C@H]2CC[C@@]3(C)[C@@H](CC[C@@]34CCC(=O)O4)[C@H]12 [Spironolactone]
- % Inhibition [1, 4]: 41%
